# Data from ChEMBL document CHEMBL6083257, “Discovery of small molecules for autophagy-lysosome degradation of immune checkpoint proteins” (Eur J Med Chem, 2024).
# Activity calls are given as the source filed them. The rule behind the calls is not given here.
# Tests used:
# [1] = target: Programmed cell death protein 1/Programmed cell death 1 ligand 1 (Homo sapiens, UniProt Q15116+Q9NZQ7); assay: Inhibition of PD-1/PD-L1 interaction (unknown origin) incubated for 90 min by TR-FRET assay; type: protein-complex assay
# Chain of Programmed cell death protein 1/Programmed cell death 1 ligand 1 (Q15116 whole entry): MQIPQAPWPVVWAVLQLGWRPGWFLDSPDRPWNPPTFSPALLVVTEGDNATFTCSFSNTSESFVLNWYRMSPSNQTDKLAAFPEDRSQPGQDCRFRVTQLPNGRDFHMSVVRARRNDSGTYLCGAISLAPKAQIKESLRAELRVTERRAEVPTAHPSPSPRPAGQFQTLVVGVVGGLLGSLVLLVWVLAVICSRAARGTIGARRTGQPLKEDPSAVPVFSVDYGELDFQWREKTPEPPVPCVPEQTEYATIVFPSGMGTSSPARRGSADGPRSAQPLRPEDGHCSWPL
# Chain of Programmed cell death protein 1/Programmed cell death 1 ligand 1 (Q9NZQ7 whole entry): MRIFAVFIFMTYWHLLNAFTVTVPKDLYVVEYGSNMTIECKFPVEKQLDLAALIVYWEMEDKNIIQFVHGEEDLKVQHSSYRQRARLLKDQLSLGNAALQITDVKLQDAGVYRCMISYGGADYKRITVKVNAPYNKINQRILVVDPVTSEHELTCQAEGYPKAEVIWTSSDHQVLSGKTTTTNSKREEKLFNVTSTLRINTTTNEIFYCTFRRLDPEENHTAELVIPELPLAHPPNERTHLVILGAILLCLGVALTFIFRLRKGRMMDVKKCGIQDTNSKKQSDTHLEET
# RKO [2] = assay: AUTAC (autophagy-targeting chimera) activity at PD-L1 in human RKO cells assessed as autophagy-lysosome mediated protein degradation measured after 24 hrs by ECL substrate based Western blotting analysis; type: cell-based; settings: dose 0.5-2 µM
# RKO [3] = assay: AUTAC (autophagy-targeting chimera) activity at PD-L1 in human RKO cells assessed as autophagy-lysosome mediated protein degradation at 2 uM measured after 24 hrs by ECL substrate based Western blotting analysis; type: cell-based
# HepG2 [4] = assay: Induction of VISTA degradation in human HepG2 cells assessed as decrease in VISTA protein level at 5 uM using ECL as substrate incubated for 1 hrs by immunoblot analysis relative to control; type: cell-based; set-up: scale not given: the % may be the effect or the level left
# HepG2 [5] = assay: Induction of VISTA degradation in human HepG2 cells assessed as decrease in VISTA protein level at 5 uM using ECL as substrate incubated for 1 hrs by immunoblot analysis; type: cell-based
# RKO [6] = assay: Upregulation of autophagy lysosome related Mitf gene expression in human RKO cells at 5 uM incubated for 24 hrs by qRT-PCR analysis; type: functional, cell-based
# RKO [7] = assay: Upregulation of autophagy lysosome related Atg9b gene expression in human RKO cells at 5 uM incubated for 24 hrs by qRT-PCR analysis; type: functional, cell-based
# RKO [8] = assay: Upregulation of autophagy lysosome related Lamp1 gene expression in human RKO cells at 5 uM incubated for 24 hrs by qRT-PCR analysis; type: functional, cell-based
# RKO [9] = assay: AUTAC (autophagy-targeting chimera) activity at PD-L1 in human RKO cells assessed as autophagy-lysosome mediated protein degradation by measuring protein level at 2 uM measured after 24 hrs by ECL substrate based Western blotting analysis relative to control; type: cell-based
# RKO [10] = assay: AUTAC (autophagy-targeting chimera) activity at PD-L1 in human RKO cells assessed as autophagy-lysosome mediated protein degradation by measuring protein level at 0.5 uM measured after 24 hrs by ECL substrate based Western blotting analysis relative to control; type: cell-based
# RKO [11] = assay: AUTAC (autophagy-targeting chimera) activity at PD-L1 in human RKO cells assessed as autophagy-lysosome mediated protein degradation by measuring protein level at 4 uM measured after 24 hrs by ECL substrate based Western blotting analysis relative to control; type: cell-based
# CT26 [12] = assay: In vivo antitumor activity against mouse CT26 cells implanted in male BALB/c mouse model assessed as decrease PD-L1 in tumor tissue at 120 mg/kg, po incubated for overnight by immunohistochemistry; type: functional, organism-based
# RKO [13] = assay: AUTAC (autophagy-targeting chimera ) activity in autophagy-lysosome mediated PD-L1 degradation in human RKO cells assessed as PD-L1 degradation at 0.5 uM using ECL as substrate incubated for 24 hrs in presence of Cycloheximide by immunoblot analysis; type: cell-based
# RKO [14] = assay: AUTAC (autophagy-targeting chimera) activity at PD-L1 in human RKO cells assessed as autophagy-lysosome mediated protein degradation by measuring reduced PD-L1 level at 0.5 uM incubated for 24 hrs by ECL substrate based Western blotting analysis relative to control; type: cell-based; set-up: scale not given: the % may be the effect or the level left
# RKO [15] = assay: Induction of autophagosome lysosome fusion in human RKO cells transfected with Ad-mCherry-GFP-LC3B incubated for 24 hrs by inverted fluorescence microscope analysis; type: functional, cell-based
# CT26 [16] = assay: In vivo antitumor activity against mouse CT26 cells implanted in male BALB/c mouse model assessed reduced tumor growth at 60 mg/kg oral administration once daily; type: functional, organism-based
# RKO [17] = assay: AUTAC (autophagy-targeting chimera ) activity in autophagy-lysosome mediated PD-L1 degradation in human RKO cells assessed as PD-L1 degradation at 10 uM using ECL as substrate incubated for 24 hrs in presence of pepstainA by immunoblot analysis; type: cell-based
# CT26 [18] = assay: In vivo antitumor activity against mouse CT26 cells implanted in male BALB/c mouse model assessed reduced tumor growth oral administration once daily; type: functional, organism-based; settings: dose 30-120 mg/kg
# [19] = Toxicity in male BALB/c mouse model mouse implanted in CT26 cells assessed as mortality at 120 mg/kg, po; type: organism-based; settings: in vivo
# RKO [20] = assay: AUTAC (autophagy-targeting chimera ) activity in autophagy-lysosome mediated PD-L1 degradation in human RKO cells assessed as PD-L1 degradation at 0.5 uM using ECL as substrate incubated for 24 hrs in presence of 3-methyladenine by immunoblot analysis; type: cell-based
# CT26 [21] = assay: Antitumor immunity against mouse CT26 cells implanted in male BALB/c mouse model assessed as increase infiltration of CD8+ cells at 30 to 120 mg/kg, po; type: functional, organism-based; settings: dose 30-120 mg/kg
# [22] = Toxicity in male BALB/c mouse model mouse implanted in CT26 cells assessed as body weight loss at 120 mg/kg, po; type: organism-based; settings: in vivo
# RKO [23] = assay: Induction of autophagy in human RKO cells assessed as increase LC3II expression at 1 uM incubated for 24 hrs in presence of 3-methyladenine by immunoblot analysis; type: functional, cell-based
# RKO [24] = assay: AUTAC (autophagy-targeting chimera) activity at PD-L1 in human RKO cells assessed as autophagy-lysosome mediated protein degradation by measuring reduced PD-L1 level at 1 uM incubated for 24 hrs by ECL substrate based Western blotting analysis relative to control; type: cell-based; set-up: scale not given: the % may be the effect or the level left
# RKO [25] = assay: AUTAC (autophagy-targeting chimera ) activity in autophagy-lysosome mediated PD-L1 degradation in human RKO cells assessed as PD-L1 degradation at 50 uM using ECL as substrate incubated for 24 hrs in presence of chloroquine by immunoblot analysis; type: cell-based
# RKO [26] = assay: AUTAC (autophagy-targeting chimera) activity at PD-L1 in human RKO cells assessed as autophagy-lysosome mediated protein degradation at 1 uM measured after 24 hrs by ECL substrate based Western blotting analysis; type: cell-based
# RKO [27] = assay: AUTAC (autophagy-targeting chimera) activity at PD-L1 in human RKO cells assessed as autophagy-lysosome mediated protein degradation by measuring protein level at 1 uM measured after 24 hrs by ECL substrate based Western blotting analysis relative to control; type: cell-based
# RKO [28] = assay: AUTAC (autophagy-targeting chimera) activity at PD-L1 in human RKO cells assessed as autophagy-lysosome mediated protein degradation at 4 uM measured after 24 hrs by ECL substrate based Western blotting analysis; type: cell-based
smiles,measurement,setting,value
Cc1c(-c2ccccc2)cccc1-c1nnc(Nc2cccc(CNCCOCCOCCNCc3cccc(Nc4nnc(-c5ccccc5)o4)c3)c2)o1,IC50,[1],0.0306 µM
Cc1c(-c2ccccc2)cccc1-c1nnc(Nc2cccc(CNCCOCCOCCOCCNCc3cccc(Nc4nnc(-c5cccc(-c6ccccc6)c5C)o4)c3)c2)o1,IC50,[1],0.0246 µM
same,Activity,RKO [2],Dose-dependent-effect
same,Activity,RKO [3],Active
Cc1c(-c2ccccc2)cccc1-c1nnc(Nc2cccc(CNCCOCCNCc3cccc(Nc4nnc(-c5cccc(-c6ccccc6)c5C)o4)c3)c2)o1,IC50,[1],0.0394 µM
Cc1c(-c2ccccc2)cccc1-c1nnc(Nc2cccc(CNCCOCCOCCOCCOCCOCCNCc3cccc(Nc4nnc(-c5ccccc5)o4)c3)c2)o1,IC50,[1],0.023 µM
Cc1c(-c2ccccc2)ccc2nc(-c3cccc(CNCCOCCOCCOCCOCCNCc4cccc(Nc5nnc(-c6ccccc6)o5)c4)c3)[nH]c12,Activity,HepG2 [4],87%
same,Activity,HepG2 [5],Active
CNc1cccc(CNCCO)c1,Activity,RKO [6],Active
same,IC50,[1],> 1 µM
same,Activity,RKO [7],Active
same,Activity,RKO [8],Active
Cc1c(-c2ccccc2)cccc1-c1nnc(Nc2cccc(CNCCOCCOCCNCc3cccc(Nc4nnc(-c5cccc(-c6ccccc6)c5C)o4)c3)c2)o1,IC50,[1],0.0257 µM
OCCNCc1cccc(Nc2nnc(-c3ccccc3)o2)c1,Activity,RKO [6],Active
same,IC50,[1],> 1 µM
same,Activity,RKO [7],Active
same,Activity,RKO [8],Active
CNc1cccc(CNCCOCCOCCOCCNCc2cccc(Nc3nnc(-c4cccc(-c5ccccc5)c4C)o3)c2)c1,Activity,RKO [9],33%
same,Activity,RKO [10],93%
same,IC50,[1],0.0223 µM
same,Activity,RKO [2],Dose-dependent-effect
same,Activity,RKO [11],28%
Cc1c(-c2ccccc2)ccc2nc(-c3cccc(CNCCOCCOCCOCCNCc4cccc(Nc5nnc(-c6ccccc6)o5)c4)c3)[nH]c12,Activity,HepG2 [4],89%
same,Activity,HepG2 [5],Active
Cc1c(-c2ccccc2)cccc1-c1nnc(Nc2cccc(CNCCOCCOCCOCCOCCNCc3cccc(Nc4nnc(-c5ccccc5)o4)c3)c2)o1,Activity,CT26 [12],Active
same,IC50,[1],0.0228 µM
same,Activity,RKO [13],Active
same,Activity,RKO [14],70%
same,Activity,RKO [15],Active
same,Activity,CT26 [16],Active
same,Activity,RKO [17],Active
same,Activity,RKO [2],Dose-dependent-effect
same,Activity,CT26 [18],Dose-dependent-effect
same,Activity,[19],Non-toxic
same,Activity,RKO [20],Active
same,Activity,CT26 [21],Active
same,Activity,[22],Non-toxic
same,Activity,RKO [23],Active
same,Activity,RKO [24],90%
same,Activity,RKO [25],Active
Cc1c(-c2ccccc2)cccc1-c1nnc(Nc2cccc(CNCCOCCOCCOCCNCc3cccc(-c4nc5ccc(-c6ccccc6)c(C)c5[nH]4)c3)c2)o1,Activity,HepG2 [5],Active
Cc1c(-c2ccccc2)cccc1-c1nnc(Nc2cccc(CNCCOCCOCCOCCNCc3cccc(Nc4nnc(-c5ccccc5)o4)c3)c2)o1,Activity,RKO [9],44%
same,Activity,RKO [10],90%
same,IC50,[1],0.0284 µM
same,Activity,RKO [2],Dose-dependent-effect
same,Activity,RKO [26],Active
same,Activity,RKO [27],72%
same,Activity,RKO [28],Active
same,Activity,RKO [11],4%
Cc1c(-c2ccccc2)cccc1-c1nnc(Nc2cccc(CNCCOCCOCCOCCOCCNCc3cccc(-c4nc5ccc(-c6ccccc6)c(C)c5[nH]4)c3)c2)o1,Activity,HepG2 [5],Active
